Test results reported in patent US20240010641A1, “N-Linked Glycosylation Inhibitors and Methods of Using Same” (YALE UNIVERSITY, priority 2020, published 2024).

System: N-linked glycosylation (OST) in CHO-ER-LucT cells
Experiment: CHO-ER-LucT luminescence assay for inhibition of N-linked glycosylation
Format: cell-based
Conditions: for Emax: 24 h, [compound's fold change-1.0 (DMSO)]/[NGI-1 fold change-1.0 (DMSO)]*100, read-out: Max activity (% NGI-1); for AC50: CHO-ER-LucT cells, 24 hrs exposure, seven-point dose dilution, luminescence
Procedure: The CHO-ER-LucT cells have been previously described (Contessa et al., 2010, Clinical Cancer Research, 16(12):3205-14) and are used for testing analog IC50 for inhibition of N-linked glycosylation in 96 or 384 well plate format. In these cells induction of luminescence is dependent on inhibition of glycosylation (and OST inhibition), and is determined after 24 hrs of exposure to the analog following the addition of luciferin substrate. The luminescent signal is then quantified using standard plate readers that detect luminescence (e.g., Biotek synergy). Experiments are performed over a seven-point dose dilution to generate dose response data and to identify IC50 values and maximal activity compared to controls. Data is transformed to log 10 values to generate a sigmoidal shaped dose response curve and fitted using nonlinear regression (curve fit) in GraphPad Prism7.
All HL compounds were tested in CHO-ER-LucT cells. IC50 (AC50) was estimated in following method: Concentration X is converted to logarithm (log10) to generate sigmoidal shape curve and dose response curve is generated using Nonlinear regression (curve fit) in Prism. EC50 (AC50) is calculated using log(agonist) vs response-(three parameters)] which uses standard Hill slope (=1).
Max activity: [compound's fold change−1.0 (DMSO)]/[NGI−1 fold change−1.0 (DMSO)]*100(%) (Eq. 1)

`C=CCN(C)c1ccc(S(=O)(=O)N2CCOCC2)cc1C(=O)Nc1ncc(CC)s1` [Example 8, 2-(allyl(methyl)amino)-N-(5-ethylthiazol-2-yl)-5-(morpholinosulfonyl)benzamide] showed an Emax of 102% and an AC50 of 0.446 µM.
For `Cc1nc(NC(=O)c2cc(S(=O)(=O)N(C)C)cnc2N(C)CC2CC2)sc1C` [Example 23, 2-((cyclopropylmethyl)(methyl)amino)-5-(N,N-dimethylsulfamoyl)-N-(4,5-dimethylthiazol-2-yl)nicotinamide], the Emax was 59% and the AC50 was 0.863 µM.
Compound `CCc1cnc(NC(=O)c2cc(S(=O)(=O)N(C)C)ccc2N(C)CC2CC2)s1` [Example 12, 2-((cyclopropylmethyl)(methyl)amino)-5-(N,N-dimethylsulfamoyl)-N-(5-ethylthiazol-2-yl)benzamide] has an Emax of 133% and an AC50 of 0.077 µM.
Work on `Cc1cnc(NC(=O)c2cc(S(=O)(=O)N(C)C)cc(F)c2N2CCCC2)s1` yielded an Emax of 114% and an AC50 of 36.9 µM.
`Cc1nc(NC(=O)c2cc(S(=O)(=O)N(C)C)ccc2N(C)C)sc1C` gave an Emax of 33.9% and an AC50 of 27.9 µM.
For `Cc1nc(NC(=O)c2cc(S(=O)(=O)N(C)C)cc(F)c2N2CCCC2)sc1C` [Example 29, 5-(N,N-dimethylsulfamoyl)-N-(4,5-dimethylthiazol-2-yl)-3-fluoro-2-(pyrrolidin-1-yl)benzamide], the Emax was 62.6% and the AC50 was 4.99 µM.
Compound `Cc1nc(NC(=O)c2cc(S(=O)(=O)N(C)C)ccc2N(C)C2CC2)sc1C` has an Emax of 43.9% and an AC50 of 3.44 µM.
With `CCc1cnc(NC(=O)c2cc(S(=O)(=O)CC3CC3)ccc2N(C)CC2CC2)s1` the Emax was 88.3% and the AC50 was 2.59 µM.
`CCc1cnc(NC(=O)c2cc(S(=O)(=O)N3CCOCC3)ccc2N(C)C2CCCCC2)s1` [Example 6, 2-(cyclohexyl(methyl)amino)-N-(5-ethylthiazol-2-yl)-5-(morpholinosulfonyl)benzamide] showed an Emax of 148% and an AC50 of 0.215 µM.
With `CCc1cnc(NC(=O)c2cc(S(=O)(=O)N(C)C)ccc2N(C)CC)s1` [Example 13, 5-(N,N-dimethylsulfamoyl)-2-(ethyl(methyl)amino)-N-(5-ethylthiazol-2-yl)benzamide] the Emax was 114% and the AC50 was 0.294 µM.
`CCc1cnc(NC(=O)c2cc(S(=O)(=O)CC3CC3)ccc2N(C)C2CCCC2)s1` gave an Emax of 89.9% and an AC50 of 1.53 µM.
`CCc1cnc(NC(=O)c2cc(S(=O)(=O)N(C)C)cnc2N(C)CC2CC2)s1` [Example 22, 2-((cyclopropylmethyl)(methyl)amino)-5-(N,N-dimethylsulfamoyl)-N-(5-ethylthiazol-2-yl)nicotinamide] gave an Emax of 126% and an AC50 of 0.572 µM.
`Cc1nc(NC(=O)c2cc(S(=O)(=O)N(C)C)ccc2N2CCC(F)(F)C2)sc1C` [Example 34, 2-(3,3-difluoropyrrolidin-1-yl)-5-(N,N-dimethylsulfamoyl)-N-(4,5-dimethylthiazol-2-yl)benzamide] gave an Emax of 76.9% and an AC50 of 0.738 µM.
With `CCc1cnc(NC(=O)c2cc(S(=O)(=O)N(C)C)cnc2N(C)C2CCCC2)s1` [Example 25, 2-(cyclopentyl(methyl)amino)-5-(N,N-dimethylsulfamoyl)-N-(5-ethylthiazol-2-yl)nicotinamide] the Emax was 108% and the AC50 was 0.309 µM.
With `CCc1cnc(NC(=O)c2cc(S(=O)(=O)N(C)C)cc(F)c2N2CCCC2)s1` the Emax was 97.3% and the AC50 was 3.76 µM.
`CCc1cnc(NC(=O)c2cc(S(=O)(=O)N(C)C)ccc2N(C)C)s1` gave an Emax of 46.1% and an AC50 of 6.85 µM.
`Cc1nc(NC(=O)c2cc(S(=O)(=O)N(C)C)cnc2N(C)C2CCCC2)sc1C` [Example 21, 2-(cyclopentyl(methyl)amino)-5-(N,N-dimethylsulfamoyl)-N-(4,5-dimethylthiazol-2-yl)nicotinamide] gave an Emax of 101% and an AC50 of 0.97 µM.
Compound `CN(CC1CC1)c1ccc(S(=O)(=O)N2CCOCC2)cc1C(=O)Nc1ncc(Cc2ccccc2)s1` has an Emax of 116% and an AC50 of 13 µM.
With `Cc1cnc(NC(=O)c2cc(S(=O)(=O)N(C)C)cnc2N2CCCC2)s1` the Emax was 50.4% and the AC50 was 70.4 µM.
